Reference: PubChem BioAssay AID180 (DTP/NCI, 2004)
Values joined by “and” are separate entries in the source; they are usually repeats but may differ in a detail not shown here. Equal entries are not always repeated.

Tested on: BDF1 mice, Adenocarcinoma 755 s.c., tumor weight T/C
Assay: NCI In Vivo Anticancer Drug Screen. Data for tumor model Adenocarcinoma 755 (subcutaneous) in B6D2F1 (BDF1) mice
Conditions: endpoint: mean tumor weight, higher = larger tumour
Description: The antitumor activity of compounds was measured in mice bearing transplantable tumors. Survival or tumor size were measured and the results are expressed as the measurement made in the treated group (T) divided by the measurement made in the vehicle treated control group (C). The tumor model used in this assay is Adenocarcinoma 755 (subcutaneous) in B6D2F1 (BDF1) mice

Q: How did the T/C (dose: 5.0 mg/kg/injection, schedule: Q01DX011 (ip), vehicle: carboxymethylcellulose (CMC)) turn out when `CCn1cnc2c(SC3CCCC3)ncnc21` was run?
A: 16 % of control

Q: And the T/C (dose: 7.5 mg/kg/injection, schedule: Q01DX011 (ip), vehicle: carboxymethylcellulose (CMC))?
A: 4 % of control

Q: And the T/C (dose: 10.0 mg/kg/injection, schedule: Q01DX011 (ip), vehicle: carboxymethylcellulose (CMC))?
A: 3 % of control

Q: What about the T/C (dose: 25.0 mg/kg/injection, schedule: Q01DX011 (ip), vehicle: carboxymethylcellulose (CMC)) of the same compound?
A: 14 % of control

Q: With `COc1ccc2c3c([nH]c2c1)[C@H]1C[C@H]2[C@H](C[C@@H](O)[C@H](OC)[C@H]2CO)CN1CC3` as the compound, how does the T/C (dose: 0.5 mg/kg/injection, schedule: Q01DX011 (ip), vehicle: saline) read?
A: 91 % of control

Q: And the T/C (dose: 1.0 mg/kg/injection, schedule: Q01DX011 (ip), vehicle: saline)?
A: 95 % of control

Q: What about the T/C (dose: 2.0 mg/kg/injection, schedule: Q01DX011 (ip), vehicle: saline) of the same compound?
A: 92 % of control

Q: Which T/C (dose: 12.0 mg/kg/injection, schedule: Q01DX011 (ip), vehicle: methylcellulose (MC)) does the source give for `CCC(C)C(N=C1N=CNC2=NC=NC12)C(=O)O` (configuration not stated) here?
A: 108 % of control

Q: What about the T/C (dose: 25.0 mg/kg/injection, schedule: Q01DX011 (ip), vehicle: methylcellulose (MC)) of the same compound?
A: 106 % of control

Q: And the T/C (dose: 50.0 mg/kg/injection, schedule: Q01DX011 (ip), vehicle: methylcellulose (MC))?
A: 80 % of control

Q: And the T/C (dose: 100.0 mg/kg/injection, schedule: Q01DX011 (ip), vehicle: methylcellulose (MC))?
A: 98 % of control

Q: What does the source list for `C[C@H]1C[C@H]2[C@@H]3CC[C@](O)(C(=O)CF)[C@@]3(C)C[C@H](O)[C@]2(F)[C@@]2(C)C=CC(=O)C=C12`?
A: T/C (dose: 0.62 mg/kg/injection, schedule: Q01DX011 (sc), vehicle: steriod suspending solution): 89 % of control; T/C (dose: 1.0 mg/kg/injection, schedule: Q01DX011 (sc), vehicle: steriod suspending solution): 76 % of control; T/C (dose: 1.25 mg/kg/injection, schedule: Q01DX011 (sc), vehicle: steriod suspending solution): 69 % of control; T/C (dose: 10.0 mg/kg/injection, schedule: Q01DX011 (sc), vehicle: steriod suspending solution): 16 % of control and 29 % of control and 33 % of control; T/C (dose: 20.0 mg/kg/injection, schedule: Q01DX011 (sc), vehicle: steriod suspending solution): 18 % of control and 27 % of control; T/C (dose: 40.0 mg/kg/injection, schedule: Q01DX011 (sc), vehicle: steriod suspending solution): 11 % of control and 14 % of control; T/C (dose: 80.0 mg/kg/injection, schedule: Q01DX011 (sc), vehicle: steriod suspending solution): 14 % of control; T/C (dose: 160.0 mg/kg/injection, schedule: Q01DX011 (sc), vehicle: steriod suspending solution): 4 % of control

Q: Which results are given for `O=C(CCBr)NCCCCCNC(=O)CCBr`?
A: T/C (dose: 56.0 mg/kg/injection, schedule: Q01DX011 (ip), vehicle: methylcellulose (MC)): 86 % of control; T/C (dose: 113.0 mg/kg/injection, schedule: Q01DX011 (ip), vehicle: methylcellulose (MC)): 71 % of control; T/C (dose: 225.0 mg/kg/injection, schedule: Q01DX011 (ip), vehicle: methylcellulose (MC)): 78 % of control; T/C (dose: 450.0 mg/kg/injection, schedule: Q01DX011 (ip), vehicle: methylcellulose (MC)): 47 % of control

Q: Which T/C (dose: 2.5 mg/kg/injection, schedule: Q01DX011 (ip), vehicle: other) does the source give for `COC1C(OC(=O)/C=C/C=C/C=C/C=C/C(=O)O)CCC2(CO2)C1C1(C)OC1CC=C(C)C` (configuration not stated) here?
A: 49 % of control

Q: And the T/C (dose: 5.0 mg/kg/injection, schedule: Q01DX011 (ip), vehicle: other)?
A: 61 % of control

Q: What about the T/C (dose: 5.0 mg/kg/injection, schedule: Q01DX011 (ip), vehicle: saline) of the same compound?
A: 78 % of control

Q: And the T/C (dose: 10.0 mg/kg/injection, schedule: Q01DX011 (ip), vehicle: methylcellulose (MC))?
A: 38 % of control

Q: What about the T/C (dose: 10.0 mg/kg/injection, schedule: Q01DX011 (ip), vehicle: other) of the same compound?
A: 40 % of control

Q: What about the T/C (dose: 10.0 mg/kg/injection, schedule: Q01DX011 (ip), vehicle: saline) of the same compound?
A: 94 % of control

Q: What about the T/C (dose: 20.0 mg/kg/injection, schedule: Q01DX011 (ip), vehicle: methylcellulose (MC)) of the same compound?
A: 28 % of control

Q: What about the T/C (dose: 20.0 mg/kg/injection, schedule: Q01DX011 (ip), vehicle: other) of the same compound?
A: 22 % of control

Q: And the T/C (dose: 20.0 mg/kg/injection, schedule: Q01DX011 (ip), vehicle: saline)?
A: 49 % of control

Q: What about the T/C (dose: 40.0 mg/kg/injection, schedule: Q01DX011 (ip), vehicle: methylcellulose (MC)) of the same compound?
A: 24 % of control

Q: What about the T/C (dose: 40.0 mg/kg/injection, schedule: Q01DX011 (ip), vehicle: other) of the same compound?
A: 18 % of control

Q: What about the T/C (dose: 40.0 mg/kg/injection, schedule: Q01DX011 (ip), vehicle: saline) of the same compound?
A: 63 % of control

Q: What about the T/C (dose: 80.0 mg/kg/injection, schedule: Q01DX011 (ip), vehicle: other) of the same compound?
A: 26 % of control

Q: And the T/C (dose: 80.0 mg/kg/injection, schedule: Q01DX011 (ip), vehicle: saline)?
A: 58 % of control
